Reference: patent US8309064B2, “Skin care compositions comprising phenoxyalkyl amines” (Conopco, Inc., priority 2009, dated 2012)

Test system: Melanoderm tissue equivalent model MEL-300 containing melanocytes
Test: Inhibition of melanogenesis (total melanin content) in Melanoderm tissue equivalent model
Assay type: cell-based
Conditions: Melanocyte, 336 h; 5 μM in maintenance medium, 14 days, total melanin content, DMSO vehicle control
Method: Melanoderm tissue equivalent model MEL-300 (MatTek: Ashland, Mass.) containing melanocytes obtained from dark skin individuals were cultured as per supplier instructions. Components were added to the maintenance medium phase (no topical treatments) at a final concentration of 5 μM for 14 days at which time the experiment was terminated and the tissues assessed for melanin content. Medium and treatments were changed three times per week. DMSO was utilized as the vehicle control and all treatments were performed at least in duplicate.
For quantification of total melanin, each Melanoderm was placed into an individual Eppendorf tube (2 mL) into which 250 μL of Solvable™ tissue solubilizer (Packard Bioscience Co., Cat#6NE9100) was added. Each tube was vortexed and incubated at 60° C. for 18 hours. Each sample was then centrifuged (5-minutes at 13,000 RPMs) to remove any particulates. 100 or 200 μL of supernatant were transferred to a 96 well microtiter plate and the absorbance read at 490 nm. Total melanin content was calculated from a standard curve using synthetic melanin (Sigma Cat# M8631). Data was analyzed for significance using the t-test in Microsoft Excel to generate p-values (p-values less than 0.01 represent 99% confidence, p values of 0.05 represent 95% confidence both of which are statistically significant).

Going from `CC(C)c1ccccc1OCCCCCCN(C)C` [5t, 6-(2-isopropylphenoxy)-N,N-dimethylhexan-1-amine] to `Cc1ccccc1OCCCCCCN(C)C` [5j, 6-(o-tolyloxy)-N,N-dimethylhexan-1-amine], the inhibition at 5 µM falls from 48.5% to 24.2%.

Compared with `CC(C)(C)NCCCCCCOc1cccc2ccccc12` [5ee, N-tert-butyl-6-(naphthalen-4-yloxy)hexan-1-amine], `CCNCCCCCCOc1cccc2ccccc12` [5gg, N-ethyl-6-(naphthalen-1-yloxy)hexan-1-amine] is lower in inhibition at 5 µM: 35.9% for the first, 35% for the second.

Going from `CC(C)c1ccccc1OCCCCCCNC(C)(C)C` [5bb, 6-(2-isopropylphenoxy)-N-tert-butylhexan-1-amine] to `Cc1ccccc1OCCCCCCNC(C)(C)C` [5i, 6-(o-tolyloxy)-N-tert-butylhexan-1-amine], the inhibition at 5 µM falls from 44.2% to 23.2%.

Going from `Cc1ccccc1OCCCCCCn1ccnc1` [5o, 1-(6-(o-tolyloxy)hexyl)-1H-imidazole] to `Cc1ccccc1OCCCCCCN` [5ii, 6-(o-tolyloxy)hexan-1-amine], the inhibition at 5 µM falls from 22.1% to -6.9%.

Compared with `Cc1ccccc1OCCCCCCN(CCO)CCO` [5m, 6-(o-tolyloxy)-N,N-di(2-hydroxyethyl)hexan-1-amine], `CC(=O)N(CCO)CCCCCCOc1ccccc1C` [5jj, N-(6-(o-tolyloxy)hexyl)-N-(2-hydroxyethyl)acetamide] is lower in inhibition at 5 µM: 32.9% for the first, -5.2% for the second.

Compared with `Cc1ccc(OCCCCCCNC(C)(C)C)cc1` [5y, 6-(p-tolyloxy)-N-tert-butylhexan-1-amine], `Cc1ccc(OCCCCCCN(C)C)cc1` [5q, 6-(p-tolyoxy)-N,N-dimethylhexan-1-amine] is lower in inhibition at 5 µM: 47.5% for the first, 41.5% for the second.

Going from `CN(C)CCCCCCOc1cccc2ccccc12` [5w, N,N-dimethyl-6-(naphthalen-4-yloxy)hexan-1-amine] to `CN(C)CCCCCCOc1ccccc1-c1ccccc1` [5v, 6-(2-phenylphenoxy)-N,N-dimethylhexan-1-amine], the inhibition at 5 µM rises from 51.3% to 56.7%.

Going from `Cc1ccccc1OCCCCNCCO` [5e, 2-(4-(o-tolyloxy)butylamino)ethanol] to `Cc1ccccc1OCCCCCNCCO` [5d, 2-(5-(o-tolyloxy)pentylamino)ethanol], the inhibition at 5 µM rises from 17.9% to 20.8%.

Going from `CCNCCCCCCOc1ccccc1C` [5ff, 6-(o-tolyloxy)-N-ethylhexan-1-amine] to `Cc1ccccc1OCCCCCCNCCO` [5b, 2-[[6-(2-methylphenoxy)hexyl]amino]-ethanol], the inhibition at 5 µM rises from 18.1% to 24.1%.

First: CCN(CC)CCCCCCOc1ccccc1C [5l, 6-(o-tolyloxy)-N,N-diethylhexan-1-amine]
Second: CCN(C)CCCCCCOc1ccccc1C [5k, 6-(o-tolyoxy)-N-ethyl-N-methylhexan-1-amine]
The inhibition at 5 µM of the first is higher: 45.6% for the first, 23.6% for the second.

Going from `Cc1ccccc1OCCNCCO` [5g, 2-(2-(o-tolyloxy)ethylamino)ethanol] to `Cc1ccccc1OCCCNCCO` [5f, 2-(3-(o-tolyloxy)propyalmino)ethanol], the inhibition at 5 µM rises from 3.2% to 10.7%.

First: CN(C)CCCCCCOc1ccccc1C(C)(C)C [5u, 6-(2-tert-butylphenxoy)-N,N-dimethylhexan-1-amine]
Second: CC(C)(C)NCCCCCCOc1ccccc1C(C)(C)C [5cc, 6-(2-tert-butylphenoxy)-N-tert-butylhexan-1-amine]
The inhibition at 5 µM of the first is lower: 49.6% for the first, 55.2% for the second.

Compared with `COCCNCCCCCCOc1ccccc1C` [5c, 6-(o-tolyloxy)-N-(2-methoxyethyl)hexan-1-amine], `CCNCCCCCCOc1ccccc1CC` [5hh, 6-(2-ethylphenoxy)-N-ethylhexan-1-amine] is higher in inhibition at 5 µM: 31.7% for the first, 37.1% for the second.

Going from `Cc1cccc(OCCCCCCN(C)C)c1` [5p, 6-(m-tolyoxy)-N,N-dimethylhexan-1-amine] to `CCc1ccccc1OCCCCCCN(C)C` [5r, 6-(2-ethylphenoxy)-N,N-dimethylhexan-1-amine], the inhibition at 5 µM falls from 37.1% to 32.9%.

Compared with `Cc1ccccc1OCCCCCCN1CCOCC1` [5n], `CC(C)(C)NCCCCCCOc1ccccc1-c1ccccc1` [5dd, 6-(2-phenylphenoxy)-N-tert-butylhexan-1-amine] is higher in inhibition at 5 µM: 42.1% for the first, 54.8% for the second.

First: OCCNCCCCCCOC1CCCCC1 [5ll, 2-(6-(cyclohexyloxy)hexylamino)ethanol]
Second: OCCNCCCCCCOc1ccccc1 [5a, 2-(6-phenoxyhexylamino)ethanol]
The inhibition at 5 µM of the first is higher: 25% for the first, 21.9% for the second.

Molecule `OCCNCCCCCCCc1ccccc1` [5kk, 2-(7-phenylheptylamino)ethanol] has an inhibition at 5 µM of 32.7%.

Same assay, conditions: Melanoderm MEL-300, 5 μM, 14 days

For `Cc1ccccc1OCCCCCCNCCO` [5b, 2-[[6-(2-methylphenoxy)hexyl]amino]-ethanol], the “melanogenesis inhibition (in words)” value was “highest melanogenesis inhibition in this set”.
With `Cc1ccccc1OCCCCCNCCO` [5d, 2-(5-(o-tolyloxy)pentylamino)ethanol] the “melanogenesis inhibition (in words)” value was “highest melanogenesis inhibition in this set”.
